Key:
DgcB (Bd0742) = molecular target: T1, DgcB (Bd0742) (Bdellovibrio bacteriovorus, UniProt Q6MPU8); experiment: diguanylyl cyclase assay, HPLC; format: biochemical; conditions: MBP-DgcB; activity only after about 30 min incubation at 37°C
T1 construct: MBP fusion, expressed in and purified from E. coli; MBP kept; copurifies with c-di-GMP
T1 sequence (Q6MPU8 1-320): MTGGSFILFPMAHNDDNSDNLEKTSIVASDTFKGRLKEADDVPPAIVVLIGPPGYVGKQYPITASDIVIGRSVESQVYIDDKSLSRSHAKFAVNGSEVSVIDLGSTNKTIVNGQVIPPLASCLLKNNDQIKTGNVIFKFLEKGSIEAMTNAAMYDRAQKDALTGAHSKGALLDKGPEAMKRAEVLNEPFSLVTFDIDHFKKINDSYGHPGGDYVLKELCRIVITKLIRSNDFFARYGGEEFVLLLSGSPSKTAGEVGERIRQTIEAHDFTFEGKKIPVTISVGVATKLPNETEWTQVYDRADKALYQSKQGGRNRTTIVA

DgcC (Bd1434) = molecular target: T2, DgcC (Bd1434) (Bdellovibrio bacteriovorus, UniProt Q6MN29); experiment: diguanylyl cyclase assay, HPLC; format: biochemical; conditions: MBP-DgcC
T2 construct: MBP fusion, expressed in and purified from E. coli; MBP kept; natural GGEEF motif
T2 sequence (Q6MN29 1-408): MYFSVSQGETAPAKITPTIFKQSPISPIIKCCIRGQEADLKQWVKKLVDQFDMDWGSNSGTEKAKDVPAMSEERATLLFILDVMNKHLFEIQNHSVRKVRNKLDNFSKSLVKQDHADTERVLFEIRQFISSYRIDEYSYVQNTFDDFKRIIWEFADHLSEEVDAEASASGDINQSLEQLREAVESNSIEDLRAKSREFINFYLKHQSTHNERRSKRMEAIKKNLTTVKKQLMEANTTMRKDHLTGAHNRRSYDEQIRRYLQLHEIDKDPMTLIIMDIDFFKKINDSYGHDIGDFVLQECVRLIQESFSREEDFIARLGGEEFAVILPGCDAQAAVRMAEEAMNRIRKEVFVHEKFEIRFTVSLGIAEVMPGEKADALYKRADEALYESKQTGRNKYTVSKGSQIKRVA

DgcA (Bd0367) = molecular target: T3, DgcA (Bd0367) (Bdellovibrio bacteriovorus, UniProt Q6MQU2); experiment: diguanylyl cyclase assay, HPLC; format: biochemical; conditions: MBP-DgcA
T3 construct: gene pleD; MBP fusion, expressed in and purified from E. coli; MBP kept
T3 sequence (Q6MQU2 1-343): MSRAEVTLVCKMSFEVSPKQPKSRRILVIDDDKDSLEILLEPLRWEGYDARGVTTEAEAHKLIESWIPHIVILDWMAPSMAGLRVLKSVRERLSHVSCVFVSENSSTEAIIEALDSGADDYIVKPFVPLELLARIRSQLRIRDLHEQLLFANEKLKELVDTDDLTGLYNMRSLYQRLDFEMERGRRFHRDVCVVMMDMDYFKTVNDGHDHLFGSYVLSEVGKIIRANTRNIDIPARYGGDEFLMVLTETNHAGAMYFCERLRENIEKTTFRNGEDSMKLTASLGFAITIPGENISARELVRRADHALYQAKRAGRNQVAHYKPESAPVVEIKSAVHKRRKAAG

CdgA (Bd3125) = molecular target: T4, CdgA (Bd3125) (Bdellovibrio bacteriovorus, UniProt Q6MIM9); experiment: equilibrium dialysis; format: binding; conditions: read-out: apparent Kd
T4 construct: MBP fusion, expressed in and purified from E. coli; MBP kept; degenerate GVNEF motif is natural
T4 sequence (Q6MIM9 1-496): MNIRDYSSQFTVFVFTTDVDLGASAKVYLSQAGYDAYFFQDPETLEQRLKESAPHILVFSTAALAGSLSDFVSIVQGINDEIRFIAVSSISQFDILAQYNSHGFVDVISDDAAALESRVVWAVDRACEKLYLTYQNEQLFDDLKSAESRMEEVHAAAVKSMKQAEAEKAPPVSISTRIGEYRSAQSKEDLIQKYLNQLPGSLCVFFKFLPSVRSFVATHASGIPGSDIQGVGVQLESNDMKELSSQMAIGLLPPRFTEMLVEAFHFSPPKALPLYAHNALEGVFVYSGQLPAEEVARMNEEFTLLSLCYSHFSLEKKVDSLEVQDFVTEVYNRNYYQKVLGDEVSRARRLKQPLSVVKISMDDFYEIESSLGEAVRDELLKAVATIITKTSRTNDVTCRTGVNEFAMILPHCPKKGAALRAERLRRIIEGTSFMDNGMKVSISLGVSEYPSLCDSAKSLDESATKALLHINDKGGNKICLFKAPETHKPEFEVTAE

Row | Kd (CdgA (Bd3125)) [nM] | Compound | diguanylyl cyclase assay, HPLC (DgcB (Bd0742)) | diguanylyl cyclase assay, HPLC (DgcC (Bd1434)) | diguanylyl cyclase assay, HPLC (DgcA (Bd0367)) | diguanylyl cyclase assay, HPLC (DgcC (Bd1434); from GTP) | diguanylyl cyclase assay, HPLC (DgcA (Bd0367); from GTP)
1 | – | Nc1nc2c(ncn2[C@@H]2O[C@H](COP(=O)(O)OP(=O)(O)OP(=O)(O)O)[C@@H](O)[C@H]2O)c(=O)[nH]1 [GTP] | DgcA, DgcB and DgcC proved to function as diguanylyl cyclases (Figure 1A–C) | DgcA, DgcB and DgcC proved to function as diguanylyl cyclases (Figure 1A–C) | DgcA, DgcB and DgcC proved to function as diguanylyl cyclases (Figure 1A–C) | – | –
2 | ~2000 | Nc1nc2c(ncn2[C@@H]2O[C@@H]3COP(=O)(O)O[C@H]4[C@@H](O)[C@H](n5cnc6c(=O)[nH]c(N)nc65)O[C@@H]4COP(=O)(O)O[C@H]3[C@H]2O)c(=O)[nH]1 [c-di-GMP] | – | – | – | HPLC profiles show peaks of c-di-GMP (product) and GTP (substrate) | HPLC profiles show peaks of c-di-GMP (product) and GTP (substrate)

Source: PMC3271064, “Discrete Cyclic di-GMP-Dependent Control of Bacterial Predation versus Axenic Growth in Bdellovibrio bacteriovorus” (PLoS Pathogens, 2012)
